Source: patent publication US11407736B2 (priority 2019, dated 2022)

Legend:
[1] = target: RIPK1 (Homo sapiens (Human), UniProt Q13546); assay: RIPK1 ADP-Glo biochemical kinase assay; settings: read-out: RIPK1 ADP-Glo Kinase (IC50)
Procedure: The final reaction volume was 5.0ul.
Adding 5 μl of ADP-Glo™ terminated the reaction.

[2] = system: U937 cells; assay: U937 cell necroptosis assay (TNFa + zVAD, CellTiter-Glo); assay type: cell-based, human; settings: Homo sapiens, U-937, U937 cells, TNFa + zVAD; read-out: U937 Zvad TNF CTG Recovery, U937, TNFa + zVAD (IC50)
Procedure, shortened: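 Necroptosis was induced with TNFa at 2 ng/mL final for 18 h at 37 °C, following 1 h compound pre-incubation in the presence of zVAD-fmk (60 uM for U937 plating medium, 40 uM for L929 medium). Luminescent CellTiter-Glo signal gave relative cell survival.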

[3] = system: L929 cells; assay: L929 cell necroptosis assay (TNFa + zVAD, CellTiter-Glo); assay type: cell-based, murine; settings: Mus musculus, L929, L929 cells, TNFa + zVAD; read-out: L929-CTG-recovery, L929, TNFa + zVAD (IC50)
Procedure, shortened: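 Necroptosis was read as CellTiter-Glo luminescence 18 hours after TNFa stimulation at 37° C, 5% CO2. Prior to that, L929 cells (10K/well, plated 18 h) received fresh medium with 40 uM zVAD-fmk plus 4-fold serially diluted compound.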

RIPK1, sequence (Q13546 whole entry, species assumed): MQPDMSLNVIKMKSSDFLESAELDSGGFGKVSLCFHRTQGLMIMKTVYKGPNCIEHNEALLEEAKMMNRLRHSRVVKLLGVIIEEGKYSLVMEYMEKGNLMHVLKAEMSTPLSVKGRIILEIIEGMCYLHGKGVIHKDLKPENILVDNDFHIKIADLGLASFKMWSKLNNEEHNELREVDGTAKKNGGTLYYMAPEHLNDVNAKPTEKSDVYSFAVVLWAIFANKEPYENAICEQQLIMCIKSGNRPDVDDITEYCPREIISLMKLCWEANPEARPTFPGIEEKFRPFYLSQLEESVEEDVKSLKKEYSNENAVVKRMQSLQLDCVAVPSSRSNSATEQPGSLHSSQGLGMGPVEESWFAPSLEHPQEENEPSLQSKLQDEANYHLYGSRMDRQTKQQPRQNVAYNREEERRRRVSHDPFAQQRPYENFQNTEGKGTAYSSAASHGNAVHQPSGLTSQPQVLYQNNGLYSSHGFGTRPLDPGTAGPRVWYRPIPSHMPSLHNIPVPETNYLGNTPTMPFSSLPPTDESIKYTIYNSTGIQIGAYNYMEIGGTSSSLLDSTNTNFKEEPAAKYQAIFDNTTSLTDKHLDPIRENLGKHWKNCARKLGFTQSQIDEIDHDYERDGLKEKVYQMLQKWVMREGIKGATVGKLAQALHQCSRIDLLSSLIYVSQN

Structure (SMILES) | IC50 [1] [nM] | IC50 [2] [nM] | IC50 [3] [nM]
CN1C(=O)[C@@H](NC(=O)c2ncn(Cc3ccccc3)n2)COc2cc(CN3CCn4nc(C(F)(F)F)nc4C3)ccc21 [Compound I-67, (S)-1-benzyl-N-(5-methyl-4-oxo-8-((2-(trifluoromethyl)-5,6-dihydro-[1,2,4]triazolo[1,5-a]pyrazin-7(8H)-yl)methyl)-2,3,4,5-tetrahydrobenzo[b][1,4]oxazepin-3-yl)-1H-1,2,4-triazole-3-carboxamide] | 41.5 | 15.2 | 8.5
CN1C(=O)[C@H](NC(=O)c2n[nH]c(Cc3ccccc3)n2)COc2ccc(C#CC(C)(C)O)cc21 [Compound I-70, (R)-5-benzyl-N-(7-(3-hydroxy-3-methylbut-1-yn-1-yl)-5-methyl-4-oxo-2,3,4,5-tetrahydrobenzo[b][1,4]oxazepin-3-yl)-1H-1,2,4-triazole-3-carboxamide] | 1160 | 188 | 19.5
CN1C(=O)[C@@H](NC(=O)c2nnc(Cc3ccccc3)o2)COc2ccc(C#CC(C)(C)O)cc21 [Compound I-71, (S)-5-benzyl-N-(7-(3-hydroxy-3-methylbut-1-yn-1-yl)-5-methyl-4-oxo-2,3,4,5-tetrahydrobenzo[b][1,4]oxazepin-3-yl)-1,3,4-oxadiazole-2-carboxamide] | 21.7 | 0.9 | 0.2
CN1C(=O)[C@@H](NC(=O)c2n[nH]c(Cc3ccccc3)n2)COc2cc(C#CC3(O)COC3)ccc21 [Compound I-73, (S)-5-benzyl-N-(8-((3-hydroxyoxetan-3-yl)ethynyl)-5-methyl-4-oxo-2,3,4,5-tetrahydrobenzo[b][1,4]oxazepin-3-yl)-1H-1,2,4-triazole-3-carboxamide] | 42.9 | 11.7 | 2.7
CN1C(=O)[C@@H](NC(=O)c2n[nH]c(Cc3ccccc3)n2)COc2ccc(C#C[C@@]3(O)CO[C@@H]4[C@@H](OC(=O)c5ccccc5)CO[C@@H]43)cc21 [Compound I-74, (3S,3aR,6R,6aS)-6-(((S)-3-(5-benzyl-1H-1,2,4-triazole-3-carboxamido)-5-methyl-4-oxo-2,3,4,5-tetrahydrobenzo[b][1,4]oxazepin-7-yl)ethynyl)-6-hydroxyhexahydrofuro[3,2-b]furan-3-yl benzoate] | 51.8 | 1.4 | 0.2
CN1C(=O)[C@@H](NC(=O)c2n[nH]c(Cc3ccccc3)n2)COc2ccc(C#C[C@@]3(O)CO[C@@H]4[C@@H](O)CO[C@@H]43)cc21 [Compound I-75, 5-benzyl-N—((S)-7-(((3R,3aS,6S,6aR)-3,6-dihydroxyhexahydrofuro[3,2-b]furan-3-yl)ethynyl)-5-methyl-4-oxo-2,3,4,5-tetrahydrobenzo[b][1,4]oxazepin-3-yl)-1H-1,2,4-triazole-3-carboxamide] | 54.6 | 8.3 | 1.4
COC(=O)C(C)(C)C#Cc1ccc2c(c1)N(C)C(=O)[C@@H](NC(=O)c1n[nH]c(Cc3ccccc3)n1)CO2 [Compound I-76, methyl (S)-4-(3-(5-benzyl-1H-1,2,4-triazole-3-carboxamido)-5-methyl-4-oxo-2,3,4,5-tetrahydrobenzo[b][1,4]oxazepin-7-yl)-2,2-dimethylbut-3-ynoate] | 44.9 | 18.1 | 2.4
CN1C(=O)[C@@H](NC(=O)c2ccn(Cc3ccccc3)n2)COc2ccc(C#CC(C)(C)O)cc21 [Compound I-77, (S)-1-benzyl-N-(7-(3-hydroxy-3-methylbut-1-yn-1-yl)-5-methyl-4-oxo-2,3,4,5-tetrahydrobenzo[b][1,4]oxazepin-3-yl)-1H-pyrazole-3-carboxamide] | 32.7 | 2.8 | 0.3
CN1C(=O)[C@@H](NC(=O)c2n[nH]c(Cc3cccc(F)c3)n2)COc2ccc(C#CC(C)(C)O)cc21 [Compound I-78, (S)-5-(3-fluorobenzyl)-N-(7-(3-hydroxy-3-methylbut-1-yn-1-yl)-5-methyl-4-oxo-2,3,4,5-tetrahydrobenzo[b][1,4]oxazepin-3-yl)-1H-1,2,4-triazole-3-carboxamide] | 33.4 | 2.5 | 0.9
CN1C(=O)[C@@H](NC(=O)c2n[nH]c(Cc3ccc(F)cc3)n2)COc2ccc(C#CC(C)(C)O)cc21 [Compound I-79, (S)-5-(4-fluorobenzyl)-N-(7-(3-hydroxy-3-methylbut-1-yn-1-yl)-5-methyl-4-oxo-2,3,4,5-tetrahydrobenzo[b][1,4]oxazepin-3-yl)-1H-1,2,4-triazole-3-carboxamide] | 34.7 | 5.1 | 0.8
CN1C(=O)[C@@H](NC(=O)c2n[nH]c(Cc3ccccc3F)n2)COc2ccc(C#CC(C)(C)O)cc21 [Compound I-80, (S)-5-(2-fluorobenzyl)-N-(7-(3-hydroxy-3-methylbut-1-yn-1-yl)-5-methyl-4-oxo-2,3,4,5-tetrahydrobenzo[b][1,4]oxazepin-3-yl)-1H-1,2,4-triazole-3-carboxamide] | 20.6 | 2.7 | 0.7
C#Cc1ccc2c(c1)N(C)C(=O)[C@@H](NC(=O)c1n[nH]c(Cc3ccccc3)n1)CO2 [Compound I-81, (S)-5-benzyl-N-(7-ethynyl-5-methyl-4-oxo-2,3,4,5-tetrahydrobenzo[b][1,4]oxazepin-3-yl)-1H-1,2,4-triazole-3-carboxamide] | 19 | 4.2 | 1.2
Cc1ccccc1Cn1cnc(C(=O)N[C@H]2COc3ccc(C#CC(C)(C)O)cc3N(C)C2=O)n1 [Compound I-82, (S)—N-(7-(3-hydroxy-3-methylbut-1-yn-1-yl)-5-methyl-4-oxo-2,3,4,5-tetrahydrobenzo[b][1,4]oxazepin-3-yl)-1-(2-methylbenzyl)-1H-1,2,4-triazole-3-carboxamide] | 25.5 | 1.9 | 0.3
CN1C(=O)[C@@H](NC(=O)c2ncn(Cc3ccc(-c4ccccc4)cc3)n2)COc2ccc(C#CC(C)(C)O)cc21 [Compound I-83, (S)-1-([1,1′-biphenyl]-4-ylmethyl)-N-(7-(3-hydroxy-3-methylbut-1-yn-1-yl)-5-methyl-4-oxo-2,3,4,5-tetrahydrobenzo[b][1,4]oxazepin-3-yl)-1H-1,2,4-triazole-3-carboxamide] | 66.4 | 1 | 0.1
Cc1cccc(C)c1Cn1cnc(C(=O)N[C@H]2COc3ccc(C#CC(C)(C)O)cc3N(C)C2=O)n1 [Compound I-84, (S)-1-(2,6-dimethylbenzyl)-N-(7-(3-hydroxy-3-methylbut-1-yn-1-yl)-5-methyl-4-oxo-2,3,4,5-tetrahydrobenzo[b][1,4]oxazepin-3-yl)-1H-1,2,4-triazole-3-carboxamide] | 44.1 | 56.3 | 12.2
CC(C)Cn1cnc(C(=O)N[C@H]2COc3ccc(C#CC(C)(C)O)cc3N(C)C2=O)n1 [Compound I-85, (S)—N-(7-(3-hydroxy-3-methylbut-1-yn-1-yl)-5-methyl-4-oxo-2,3,4,5-tetrahydrobenzo[b][1,4]oxazepin-3-yl)-1-isobutyl-1H-1,2,4-triazole-3-carboxamide] | 42.3 | 3.3 | 0.6
CCN(C(=O)c1n[nH]c(Cc2ccccc2)n1)[C@H]1COc2ccc(C#CC(C)(C)O)cc2N(C)C1=O [Compound I-86, (S)-5-benzyl-N-ethyl-N-(7-(3-hydroxy-3-methylbut-1-yn-1-yl)-5-methyl-4-oxo-2,3,4,5-tetrahydrobenzo[b][1,4]oxazepin-3-yl)-1H-1,2,4-triazole-3-carboxamide] | 616 | 4.1 | 0.6
CN1C(=O)[C@@H](NC(=O)c2cc(Cc3ccccc3)on2)COc2ccc(C#CC(C)(C)O)cc21 [Compound I-87, (S)-5-benzyl-N-(7-(3-hydroxy-3-methylbut-1-yn-1-yl)-5-methyl-4-oxo-2,3,4,5-tetrahydrobenzo[b][1,4]oxazepin-3-yl)isoxazole-3-carboxamide] | 18.7 | 138 | 29.2
CN1C(=O)[C@@H](NC(=O)c2n[nH]c(Cc3ccccc3)n2)COc2ccc(C#Cc3ccc4c(c3)CNCC4)cc21 [Compound I-88, (S)-5-benzyl-N-(5-methyl-4-oxo-7-((1,2,3,4-tetrahydroisoquinolin-7-yl)ethynyl)-2,3,4,5-tetrahydrobenzo[b][1,4]oxazepin-3-yl)-1H-1,2,4-triazole-3-carboxamide] | 73.8 | 0.7 | 0.0976
CN1C(=O)[C@@H](NC(=O)c2n[nH]c(Cc3ccccc3F)n2)COc2ccc(C#CC(C)(C)C)cc21 [Compound I-89, (S)—N-(7-(3,3-dimethylbut-1-yn-1-yl)-5-methyl-4-oxo-2,3,4,5-tetrahydrobenzo[b][1,4]oxazepin-3-yl)-5-(2-fluorobenzyl)-1H-1,2,4-triazole-3-carboxamide] | 52.7 | 4.5 | 0.7
Cc1cccc(C)c1Cn1cnc(C(=O)N[C@H]2COc3ccc(C#CC(C)(C)C)cc3N(C)C2=O)n1 [Compound I-90, (S)-1-(2,6-dimethylbenzyl)-N-(7-(3,3-dimethylbut-1-yn-1-yl)-5-methyl-4-oxo-2,3,4,5-tetrahydrobenzo[b][1,4]oxazepin-3-yl)-1H-1,2,4-triazole-3-carboxamide] | 365 | 9.1 | 4.6
